Like-named read-outs stand apart in the source and are kept apart here.
Tests used:
DOHH2 cells = experiment: CellTiter-Glo cell viability assay, DOHH2 cells (Example 11); type: cell-based; conditions: Homo sapiens, DOHH-2, DOHH2 parental cells
Method: (§1) DOHH2 cells were cultured in RPM11640 medium containing 10% calf serum, 1% antibiotics and 5 ug/ml verapamil (calcium ion channel blocker), and ibrutinib was added at a gradually increasing concentration from 0.5 uM to 10 uM. After exposure for about three months, a ibrutinib-resistant DOHH2R cell line was obtained, also referred to as DOHH2^R-ibrutinib. After DOHH2^R-ibrutinib was stabilized, it was continued to be cultured in culture medium containing 10 uM Ibrutinib to maintain its resistance. Ibrutinib is absent only in the susceptibility test with Compound 6 or 88.
(§2) Relative light units (RLU) were determined by a microplate reader (BioTek, Synergy H1 MF, USA). […] IC50 values were calculated using GraphPad Prism. IC50 was expressed as mean±standard deviation (SD).

DOHH2^R-ibrutinib cells = experiment: CellTiter-Glo cell viability assay, ibrutinib-resistant DOHH2R-ibrutinib cells; type: cell-based, human; conditions: for IC50: Homo sapiens, ibrutinib-resistant cells, CellTiter-Glo, 24 or 72 hours, read-out: IC50 value to the DOHH2^R-ibrutinib cell line (cell viability)
Method: as §1, §2

[1] = system: human OCI-LY1 (DLBCL) xenograft tumor; type: in vivo; conditions: for RTV on the 43rd day after administration (mean ± standard error) / T/C (%) on day 43 after administration: Cpd. 6 100 mg/kg p.o. qd, Ibrutinib 15 mg/kg i.v. qd, day 43; for TGI (%) on day 43 after administration: TGI = 100 − T/C%
Method: (§3) All animal experiments were strictly in accordance with the laboratory animal use and management practices of GenePharma Co., Ltd. and Ascentage Pharma Group Co., Ltd. The calculation of relevant parameters referred to the Chinese CFDA “Guidelines for Non-Clinical Research Techniques of Cytotoxic Antitumor Drugs”.
(§4) Animal body weight and tumor size were measured twice a week during the experiment. Tumor growth was observed periodically, and the animals were randomly divided into groups according to tumor size and mouse body weight when the tumors grew to an average volume of 100-200 mm^3. The conditions and death of the animals were observed every day. Routine monitoring included the effects of tumor growth and treatment on normal animal behaviors, including activity, feeding and drinking situations, weight gain or loss, eyes, coat and other abnormalities in the experimental animals. The deaths and clinical symptoms observed during the experiment were recorded in the raw data. The entire operations of administration, measurement of mouse body weight and tumor volume were performed in a clean bench. Plasma and tumor tissues were collected, weighed and photographed after the end of the last administration according to the experimental protocol. Plasma and tumor samples were frozen and stored at −80° C.
(§5) Tumor volume (TV) was calculated as: TV=a×b^2/2, in which a and b represented the length and width of the tumor as measured, respectively. The relative tumor volume (RTV) was calculated as: RTV=Vt/V1, in which V1 was the tumor volume at the time of grouping and administration, and Vt was the tumor volume measured on a day after administration. […] Change of body weight %=(measured body weight−body weight at the time of grouping)/body weight at the time of grouping×100%.
(§6) If the synergy factor was >1, there was a synergistic effect; if the synergistic factor=1, there was an additive effect; if the synergistic factor <1, there was an antagonistic effect.
In short, when the average tumor volume reached approximately 90 mm^3, grouping and administration started. Ibrutinib was administered at a dose of 15 mg/kg, i.v., qd, from the day of grouping, for 3 weeks. […] On the 13th day after grouping, the administration was stopped and the observation period started.

[2] = system: human DOHH2 (FL) xenograft tumor; type: in vivo; conditions: Cpd. 6 100 mg/kg, Ibrutinib 25 mg/kg; for TGI (%) on day 32 after administration: TGI = 100 − T/C%
Method: as §3, §4, §5, §6

[3] = system: human DOHH2 (FL) xenograft tumor; type: in vivo; conditions: Cpd. 6 50 mg/kg, Ibrutinib 20 mg/kg
Method: (§7) . All animal experiments were strictly in accordance with the laboratory animal use and management practices of GenePharma Co., Ltd. and Ascentage Pharma Group Co., Ltd. The calculation of relevant parameters referred to the Chinese CFDA “Guidelines for Non-Clinical Research Techniques of Cytotoxic Antitumor Drugs”.
as §4
(§8) Tumor volume (TV) was calculated as: TV=a×b^2/2, in which a and b represented the length and width of the tumor as measured, respectively. The relative tumor volume (RTV) was calculated as: RTV=Vt/V1, in which V1 was the tumor volume at the time of grouping and administration, and Vt was the tumor volume measured on a day after administration. The evaluation index of anti-tumor activity was the relative tumor proliferation rate T/C (%), which was calculated as: relative tumor proliferation rate T/C (%)=(TRTV/CRTV)×100%, in which TRTV was the RTV of the treatment group, CRTV was the RTV of the vehicle control group; tumor remission rate (%) was calculated as: (the number of SD (stable disease), PR (tumor partial regression) and CR (tumor complete regression) in the tumor-bearing mice after treatment)/the total number of mice in the group×100%. Change of body weight %=(measured body weight−body weight at the time of grouping)/body weight at the time of grouping×100%.
(§9) ; The synergistic analysis was performed by the following formula: synergy factor=((A/C)×(B/C))/(AB/C); A=RTV value of the group administered with A only; B=RTV value of the group administered with B only; C=RTV value of the vehicle control group; AB=RTV value of the group administered with A and B in combination (Clarke R. Issues in experimental design and endpoint analysis in the study of experimental cytotoxic agents in vivo in breast cancer and other models [J]. Breast Cancer Research & Treatment, 1997, 46(2-3): 255-278). If the synergy factor was >1, there was a synergistic effect; if the synergistic factor=1, there was an additive effect; if the synergistic factor <1, there was an antagonistic effect.

[4] = system: human OCI-LY1 (DLBCL) xenograft tumor; type: in vivo; conditions: Cpd. 6 50 mg/kg, Ibrutinib 20 mg/kg; for T/C on day 36 after administration: given as fraction
Method: as §7, §4, §8, §9

DOHH-2 cells = experiment: Flow cytometry analysis of apoptosis (Annexin V/PI), DOHH-2; type: cell-based, human; conditions: DOHH-2, 24 hours; 10 nM Compound 6, 100 nM ibrutinib, or the combination
Method: (§10) Apoptosis was evaluated with AnnexinV/propidium iodide (PI) dyes (BD Biosciences, Cat. 556547) according to manufacturer's instructions. Briefly, cells were seeded in 24-well plates at a density 2×10^5 cells/well, and treated with Compound 6 and/or ibrutinib (Selleck) to induce apoptosis. After 24 h, cells were collected, washed twice with PBS (pH 7.4), and stained with Annexin-V and propidium iodide (PI) for 15 mins. Stained samples were analyzed using flow cytometer Attune NxT (Life technologies).
(§11) In the experiment, the combination treatment with Compound 6 and ibrutinib was evaluated for its ability of apoptosis induction on DOHH2 and OCI-LY1 cells by co-staining of Annexin-V/Propidium iodide (PI) followed by flow cytometry analysis (FIG. 7A). […] Flow cytometry analysis of apoptotic cells by Annexin V and propidium iodide (PI) co-staining in DOHH-2 and OCI-LY1 cell lines treated with 10 nM (DOHH-2) or 15 nM (OCI-LY1) Compound 6, 100 nM (DOHH-2) or 150 nM (OCI-LY1) ibrutinib, or the combination for 24 hours. Three independent experiments were conducted and the representative results are shown (7A). The percentages of Annexin V-positive, PI-positive, or double positive DOHH-2 (7B) and OCI-LY1 (7C) cells are plotted as bar charts and shown as mean±SEM (n=3) (**p<0.01, ***p<0.001).

OCI-LY1 cells = experiment: Flow cytometry analysis of apoptosis (Annexin V/PI), OCI-LY1; type: cell-based, human; conditions: OCI-LY1, 24 hours; 15 nM Compound 6, 150 nM ibrutinib, or the combination
Method: as §10, §11

[5] = system: various hematological malignancies cell lines including those from DLBCL and FL; experiment: Anti-proliferative activity as single agent in hematological malignancies cell lines (data not shown); type: cell-based
[6] = Cpd. 6 100 mg/kg, Ibrutinib 15 mg/kg
[7] = Cpd. 6 100 mg/kg, Ibrutinib 15 mg/kg, including CR, PR and SD
[8] = Cpd. 6 100 mg/kg, Ibrutinib 15 mg/kg, mice per group
[9] = Cpd. 6 100 mg/kg, Ibrutinib 15 mg/kg, mice per group, listed as Cpd. 6

Row | SMILES | IC50 (DOHH2 cells) | IC50 (DOHH2^R-ibrutinib cells) | RTV on the 43rd day after administration (mean ± standard error) [1] | T/C (%) on day 43 after administration [1] | TGI (%) on day 43 after administration [1, 6] | RTV on day 50 after administration (mean ± standard error) [1, 6] | remission rate % on day 43 after administration [1, 7] | remission rate % on day 50 after administration [1, 7] | Tumor status on day 43 after administration: CR (tumor complete regression) [1, 8] | Tumor status on day 43 after administration: PR (tumor partial regression) [1, 8] | Tumor status on day 50 after administration: CR [1, 8] | Tumor status on day 50 after administration: PR [1, 8] | TGI (%) on day 32 after administration [2] | RTV on day 32 after administration (mean ± standard error) [2] | T/C (%) on day 32 after administration [2] | RTV on day 35 after administration (mean ± standard error) [3] | T/C (%) on day 35 after administration [3] | RTV on day 36 after administration (mean ± standard error) [4] | T/C on day 36 after administration [4] | apoptosis induction (Annexin V / PI positive cells) (DOHH-2 cells) | other results
1 | CC1(C)CCC(CN2CCN(c3ccc(C(=O)NS(=O)(=O)c4ccc(NCC5CCOCC5)c([N+](=O)[O-])c4)c(Oc4cnc5[nH]ccc5c4)c3)CC2)=C(c2ccc(Cl)cc2)C1 [ABT-199, reference compound] | 51.1 nM | 1190 nM | – | – | – | – | – | – | – | – | – | – | – | – | – | – | – | – | – | – | –
2 | O=C(NS(=O)(=O)c1ccc(NC[C@H]2COCCO2)c([N+](=O)[O-])c1)c1ccc(N2CCN(CC3=C(c4ccc(Cl)cc4)CC4(CCC4)CC3)CC2)cc1Oc1cnc2[nH]ccc2c1 [Compound 6, (S)-N-((4-(((1,4-dioxan-2-yl)methyl)amino)-3-nitrophenyl)sulfonyl)-2-((1H-pyrrolo[2,3-b]pyridin-5-yl)oxy)-4-(4-((6-(4-chlorophenyl)spiro[3.5]non-6-en-7-yl)methyl)piperazin-1-yl)benzamide] | 48.4 nM | 648 nM | 1.03 ± 0.33 | 4% | 96% | 2.64 ± 0.55 | 20% | ( 10% ) | 1/5 | 1/5 | 0/5 CR, | 1/5 PR | 81% | 2.4 ± 0.2 | 19% | 7.5 ± 0.7 | 44.40% | 2.2 ± 0.4 | 0.090 | slightly enhanced apoptotic activity | remission rate % on day 68 after administration [1, 7]: PR ( 0% ); remission rate % on day 43 after administration ([1]; Cpd. 6 100 mg/kg, Ibrutinib 15 mg/kg, including CR, PR and SD, listed as Cpd. 6): ( 100% ); Tumor status on day 68 after administration: CR [1, 8]: 0/5 CR, 0/5; Tumor status on day 68 after administration: PR [1, 8]: 0/5 CR, 0/5; Tumor status on day 43 after administration: CR (tumor complete regression) [1, 9]: 1/5 CR, 1/5; Tumor status on day 43 after administration: PR (tumor partial regression) [1, 9]: 1/5 CR, 1/5; RTV on day 43 after administration ([4]; day 43): 7.1 ± 0.4; apoptosis induction (Annexin V / PI positive cells) (OCI-LY1 cells): slightly enhanced apoptotic activity; anti-proliferative activities as a single agent compared with ABT-199 [5]: comparable if not better than ABT-199
3 | Cc1c(S(C)(=O)=O)c(-c2cc(F)cc(N3CCN(c4ccc(NS(=O)(=O)c5ccc(N[C@H](CCN6CCC(C(=O)O)CC6)CSc6ccccc6)c(S(=O)(=O)C(F)(F)F)c5)cc4)CC3)c2)c(-c2ccc(Cl)cc2)n1C(C)C [Compound 88, (R)-1-(3-(4-(N-(4-(4-(3-(2-(4-chlorophenyl)-1-isopropyl-5-methyl-4-(methylsulfonyl)-1H-pyrrol-3-yl)-5-fluorophenyl)piperazin-1-yl)phenyl)-sulfamoyl)-2-(trifluoromethylsulfonyl)phenylamino)-4-(phenylthio)butyl)piperidine-4-carboxylic acid] | – | 17 nM | – | – | – | – | – | – | – | – | – | – | – | – | – | – | – | – | – | – | time to cell death (DOHH2^R-ibrutinib cells; DOHH2^R-ibrutinib cells): ≤ 24 h
4 | C=CC(=O)N1CCC[C@@H](n2nc(-c3ccc(Oc4ccccc4)cc3)c3c(N)ncnc32)C1 [Ibrutinib, reference compound] | 73.5 nM | 12200 nM | 15.9 ± 7.63 | 58% | 42% | 32.1 ± 1137 | PR ( 0% ) | ( 0% ) | 0/5 CR, 0/5 | 0/5 CR, 0/5 | 0/5 CR, | 0/5 PR | 52% | 6.1 ± 0.8 | 48% | 11.4 ± 1.5 | 67.7% | 20.5 ± 2.1 | 0.810 | limited apoptosis activity | apoptosis induction (Annexin V / PI positive cells) (OCI-LY1 cells): limited apoptosis activity; increase of IC50 in DOHH2^R-ibrutinib versus DOHH2 cells (DOHH2^R-ibrutinib cells): 160 fold
